Results on 10 compounds are retold here after ChEMBL document CHEMBL5465560, “Selectivity Literature for EUbOPEN Chemogenomic Library” (2024).

The structures appear in SMILES notation.

One assay has as its target Misshapen-like kinase 1 (Homo sapiens, UniProt Q8N4C8). Put plainly: Selectivity interaction (ProQinase) EUB0000171b MINK1.
For assay [1], the target named is Tyrosine-protein kinase JAK2 (Homo sapiens, UniProt O60674). Put plainly: Selectivity interaction (SelectScreen Kinase Profiling (Thermo Fisher Scientific)) EUB0001558a JAK2. The conditions noted are these: at 1 µM.
The target of assay [2] is T1, Muscle, skeletal receptor tyrosine-protein kinase (Homo sapiens) (UniProt O15146).
T1 sequence (whole entry): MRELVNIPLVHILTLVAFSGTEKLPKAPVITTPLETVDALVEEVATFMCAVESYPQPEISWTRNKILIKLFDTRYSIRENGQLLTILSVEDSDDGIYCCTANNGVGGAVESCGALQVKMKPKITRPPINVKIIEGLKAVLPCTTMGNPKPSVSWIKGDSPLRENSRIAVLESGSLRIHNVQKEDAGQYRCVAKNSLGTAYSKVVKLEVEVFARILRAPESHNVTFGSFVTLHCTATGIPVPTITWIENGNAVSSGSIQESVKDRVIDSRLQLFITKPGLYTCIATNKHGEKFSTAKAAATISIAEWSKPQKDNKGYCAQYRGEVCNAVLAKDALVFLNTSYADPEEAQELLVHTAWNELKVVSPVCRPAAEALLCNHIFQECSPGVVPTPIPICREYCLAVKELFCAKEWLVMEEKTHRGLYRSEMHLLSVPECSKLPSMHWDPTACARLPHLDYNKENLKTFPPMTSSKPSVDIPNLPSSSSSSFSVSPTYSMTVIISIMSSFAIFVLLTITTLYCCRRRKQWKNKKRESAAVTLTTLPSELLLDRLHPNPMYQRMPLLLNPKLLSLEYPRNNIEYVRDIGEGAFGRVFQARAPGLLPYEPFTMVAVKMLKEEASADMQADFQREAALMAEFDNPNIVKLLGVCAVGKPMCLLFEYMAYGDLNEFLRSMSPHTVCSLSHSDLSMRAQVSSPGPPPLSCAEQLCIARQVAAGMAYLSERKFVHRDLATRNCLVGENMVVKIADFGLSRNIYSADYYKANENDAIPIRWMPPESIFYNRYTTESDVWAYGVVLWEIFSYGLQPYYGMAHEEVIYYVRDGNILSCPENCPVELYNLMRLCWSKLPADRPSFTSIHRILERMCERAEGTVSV
The assay can be described thus: Selectivity interaction (KinomeScan (DiscoverX)) EUB0000092b MUSK. The conditions noted are these: at 10 µM.

Assay [3] deals with STE20/SPS1-related proline-alanine-rich protein kinase (Homo sapiens) (UniProt Q9UEW8). Put plainly: Selectivity interaction (KinomeScan (DiscoverX)) EUB0000092b STK39. Conditions: at 10 µM.
For assay [4], the target named is Serine/threonine-protein kinase PAK 2 (Homo sapiens) (UniProt Q13177). The assay can be described thus: Selectivity interaction (KinomeScan (DiscoverX)) EUB0000655a PAK2. Conditions: at 10 µM.
Assay [5] concerns the target T2, Histone-lysine N-methyltransferase SMYD3 (Homo sapiens) (UniProt Q9H7B4).
T2 sequence (whole entry): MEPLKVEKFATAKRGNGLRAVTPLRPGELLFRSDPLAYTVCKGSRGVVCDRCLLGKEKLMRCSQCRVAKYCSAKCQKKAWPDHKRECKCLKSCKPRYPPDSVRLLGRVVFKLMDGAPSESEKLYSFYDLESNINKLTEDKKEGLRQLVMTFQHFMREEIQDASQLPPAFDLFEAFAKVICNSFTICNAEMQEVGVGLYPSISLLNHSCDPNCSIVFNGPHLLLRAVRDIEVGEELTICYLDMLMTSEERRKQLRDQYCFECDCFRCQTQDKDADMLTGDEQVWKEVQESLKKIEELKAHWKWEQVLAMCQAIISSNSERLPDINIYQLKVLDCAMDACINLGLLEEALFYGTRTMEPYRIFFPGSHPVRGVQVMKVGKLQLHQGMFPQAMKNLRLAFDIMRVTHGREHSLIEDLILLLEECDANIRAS
Conditions: at 10 µM.

For assay [6], the target named is Vascular endothelial growth factor receptor 3 (Homo sapiens, UniProt P35916). The assay can be described thus: Selectivity interaction (KinomeScan (DiscoverX)) EUB0000607a FLT4. The conditions noted are these: at 10 µM.
For assay [7], the target named is T3, Mitogen-activated protein kinase kinase kinase 3 (Homo sapiens) (UniProt Q99759).
T3 sequence (whole entry): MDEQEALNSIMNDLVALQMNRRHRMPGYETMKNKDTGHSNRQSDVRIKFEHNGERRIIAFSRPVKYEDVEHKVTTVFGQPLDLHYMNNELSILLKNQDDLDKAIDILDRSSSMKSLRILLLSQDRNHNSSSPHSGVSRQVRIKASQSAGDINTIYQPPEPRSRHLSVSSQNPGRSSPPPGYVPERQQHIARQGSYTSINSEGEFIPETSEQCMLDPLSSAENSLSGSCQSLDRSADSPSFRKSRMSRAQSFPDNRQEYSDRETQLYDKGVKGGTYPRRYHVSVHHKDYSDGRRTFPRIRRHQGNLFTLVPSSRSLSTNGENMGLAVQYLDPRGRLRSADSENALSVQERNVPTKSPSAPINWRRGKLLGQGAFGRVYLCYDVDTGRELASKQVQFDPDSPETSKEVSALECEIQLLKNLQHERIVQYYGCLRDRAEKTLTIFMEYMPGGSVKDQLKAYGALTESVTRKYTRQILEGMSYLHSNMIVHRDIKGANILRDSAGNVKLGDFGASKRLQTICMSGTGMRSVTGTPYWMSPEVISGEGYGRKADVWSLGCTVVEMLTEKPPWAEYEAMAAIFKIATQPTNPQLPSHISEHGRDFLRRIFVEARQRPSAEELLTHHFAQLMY
The assay can be described thus: Selectivity interaction (Kinase panel (Invitrogen)) EUB0000639a MAP3K3. Conditions: at 200 nM.

The target of assay [8] is Mitogen-activated protein kinase kinase kinase 11 (Homo sapiens) (UniProt Q16584). The assay can be described thus: Selectivity interaction (ActivX KiNativ screen (kinase selectivity in THP-1 cell lysates)) EUB0000639a MAP3K11. It counts as subcellular. Conditions: lysate, at 0.04 µM.
Assay [9] concerns the target Serine/threonine-protein kinase MARK2 (Homo sapiens) (UniProt Q7KZI7). Put plainly: Selectivity interaction (ActivX KiNativ screen (kinase selectivity in THP-1 cell lysates)) EUB0000639a MARK2. It counts as subcellular. Conditions: lysate, at 0.01 µM.
Assay [10] addresses Serine/threonine-protein kinase WNK2 (Homo sapiens) (UniProt Q9Y3S1). The assay can be described thus: Selectivity interaction (ActivX KiNativ screen (kinase selectivity in THP-1 cell lysates)) EUB0000639a WNK2. It counts as subcellular. The conditions noted are these: lysate.
For assay [11], the target named is MAP kinase-interacting serine/threonine-protein kinase 2 (Homo sapiens, UniProt Q9HBH9). The assay can be described thus: Selectivity interaction (Kinase panel (33PanQinase(R) Activity Assay)) EUB0000877a MKNK2.
In assay [12] the target is Cyclin-dependent kinase 9 (Homo sapiens, UniProt P50750). Put plainly: Selectivity interaction (ActivX KiNativ screen (ex vivo kinase selectivity in human PBMCs)) EUB0001619a CDK9. The class given is cell-based. The conditions noted are these: PBMC, at 1 µM.
The target of assay [13] is Myosin light chain kinase, smooth muscle (Homo sapiens, UniProt Q15746). The assay can be described thus: Selectivity interaction (KinomeScan (DiscoverX)) EUB0000618a MYLK. Conditions: at 10 µM.

Chain of Serine/threonine-protein kinase WNK2 (Homo sapiens) (Q9Y3S1 whole entry): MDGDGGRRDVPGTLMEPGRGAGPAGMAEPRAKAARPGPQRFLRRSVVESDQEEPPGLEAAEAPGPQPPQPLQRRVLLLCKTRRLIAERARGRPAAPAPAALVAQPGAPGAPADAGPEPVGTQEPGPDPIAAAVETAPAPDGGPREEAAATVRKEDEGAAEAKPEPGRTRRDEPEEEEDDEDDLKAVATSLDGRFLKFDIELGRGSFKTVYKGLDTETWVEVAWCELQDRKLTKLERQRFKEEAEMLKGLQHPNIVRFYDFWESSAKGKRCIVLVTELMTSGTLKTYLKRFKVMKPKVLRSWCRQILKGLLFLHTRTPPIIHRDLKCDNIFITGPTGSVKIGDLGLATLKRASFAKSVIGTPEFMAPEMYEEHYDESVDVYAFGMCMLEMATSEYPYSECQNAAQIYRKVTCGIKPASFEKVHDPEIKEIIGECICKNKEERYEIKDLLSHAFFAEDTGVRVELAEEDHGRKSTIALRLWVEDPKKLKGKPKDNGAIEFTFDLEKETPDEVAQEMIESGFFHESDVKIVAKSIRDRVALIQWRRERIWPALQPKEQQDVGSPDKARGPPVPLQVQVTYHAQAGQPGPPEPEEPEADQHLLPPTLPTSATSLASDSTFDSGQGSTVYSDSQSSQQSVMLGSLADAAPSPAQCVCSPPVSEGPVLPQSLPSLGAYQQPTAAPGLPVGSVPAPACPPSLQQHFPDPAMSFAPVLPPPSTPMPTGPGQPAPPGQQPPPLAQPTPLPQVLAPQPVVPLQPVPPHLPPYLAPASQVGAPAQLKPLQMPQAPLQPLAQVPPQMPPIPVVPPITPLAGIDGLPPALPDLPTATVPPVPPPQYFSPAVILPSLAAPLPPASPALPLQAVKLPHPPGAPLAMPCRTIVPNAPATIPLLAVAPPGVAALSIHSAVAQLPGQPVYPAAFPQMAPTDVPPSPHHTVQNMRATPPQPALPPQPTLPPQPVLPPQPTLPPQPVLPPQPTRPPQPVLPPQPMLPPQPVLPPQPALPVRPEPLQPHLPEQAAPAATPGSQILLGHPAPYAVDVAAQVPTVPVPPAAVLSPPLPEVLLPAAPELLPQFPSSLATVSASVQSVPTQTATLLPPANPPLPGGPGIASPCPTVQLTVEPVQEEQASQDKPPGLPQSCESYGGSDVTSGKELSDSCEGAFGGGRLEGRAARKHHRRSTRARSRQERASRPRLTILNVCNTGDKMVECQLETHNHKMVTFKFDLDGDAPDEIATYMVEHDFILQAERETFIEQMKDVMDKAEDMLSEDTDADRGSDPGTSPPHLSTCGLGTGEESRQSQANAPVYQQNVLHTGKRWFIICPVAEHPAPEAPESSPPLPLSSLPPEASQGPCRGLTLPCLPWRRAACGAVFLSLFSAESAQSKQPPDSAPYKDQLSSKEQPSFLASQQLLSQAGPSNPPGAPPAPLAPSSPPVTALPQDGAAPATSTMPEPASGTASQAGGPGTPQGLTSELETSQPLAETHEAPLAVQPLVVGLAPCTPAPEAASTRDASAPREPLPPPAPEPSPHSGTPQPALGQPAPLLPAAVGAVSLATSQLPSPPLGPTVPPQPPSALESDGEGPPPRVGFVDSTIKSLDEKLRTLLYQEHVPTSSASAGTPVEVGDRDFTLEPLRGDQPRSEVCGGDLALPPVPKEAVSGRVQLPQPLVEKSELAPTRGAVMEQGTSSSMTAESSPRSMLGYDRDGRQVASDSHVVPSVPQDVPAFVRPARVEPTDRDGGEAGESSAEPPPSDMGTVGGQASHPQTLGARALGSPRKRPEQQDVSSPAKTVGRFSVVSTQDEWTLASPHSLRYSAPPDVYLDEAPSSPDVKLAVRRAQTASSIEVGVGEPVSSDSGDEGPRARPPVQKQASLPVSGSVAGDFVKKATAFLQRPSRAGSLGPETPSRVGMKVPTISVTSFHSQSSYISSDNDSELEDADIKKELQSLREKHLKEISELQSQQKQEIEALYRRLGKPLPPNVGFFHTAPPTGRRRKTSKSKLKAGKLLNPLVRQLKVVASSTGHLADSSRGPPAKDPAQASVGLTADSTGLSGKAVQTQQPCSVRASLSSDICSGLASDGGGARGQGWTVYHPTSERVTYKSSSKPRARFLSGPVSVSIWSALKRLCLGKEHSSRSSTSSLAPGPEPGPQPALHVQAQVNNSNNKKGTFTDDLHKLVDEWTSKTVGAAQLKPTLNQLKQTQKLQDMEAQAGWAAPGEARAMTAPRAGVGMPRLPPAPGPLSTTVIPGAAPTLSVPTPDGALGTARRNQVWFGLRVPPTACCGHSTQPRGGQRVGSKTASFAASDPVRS
Chain of Misshapen-like kinase 1 (Q8N4C8 whole entry, looked up): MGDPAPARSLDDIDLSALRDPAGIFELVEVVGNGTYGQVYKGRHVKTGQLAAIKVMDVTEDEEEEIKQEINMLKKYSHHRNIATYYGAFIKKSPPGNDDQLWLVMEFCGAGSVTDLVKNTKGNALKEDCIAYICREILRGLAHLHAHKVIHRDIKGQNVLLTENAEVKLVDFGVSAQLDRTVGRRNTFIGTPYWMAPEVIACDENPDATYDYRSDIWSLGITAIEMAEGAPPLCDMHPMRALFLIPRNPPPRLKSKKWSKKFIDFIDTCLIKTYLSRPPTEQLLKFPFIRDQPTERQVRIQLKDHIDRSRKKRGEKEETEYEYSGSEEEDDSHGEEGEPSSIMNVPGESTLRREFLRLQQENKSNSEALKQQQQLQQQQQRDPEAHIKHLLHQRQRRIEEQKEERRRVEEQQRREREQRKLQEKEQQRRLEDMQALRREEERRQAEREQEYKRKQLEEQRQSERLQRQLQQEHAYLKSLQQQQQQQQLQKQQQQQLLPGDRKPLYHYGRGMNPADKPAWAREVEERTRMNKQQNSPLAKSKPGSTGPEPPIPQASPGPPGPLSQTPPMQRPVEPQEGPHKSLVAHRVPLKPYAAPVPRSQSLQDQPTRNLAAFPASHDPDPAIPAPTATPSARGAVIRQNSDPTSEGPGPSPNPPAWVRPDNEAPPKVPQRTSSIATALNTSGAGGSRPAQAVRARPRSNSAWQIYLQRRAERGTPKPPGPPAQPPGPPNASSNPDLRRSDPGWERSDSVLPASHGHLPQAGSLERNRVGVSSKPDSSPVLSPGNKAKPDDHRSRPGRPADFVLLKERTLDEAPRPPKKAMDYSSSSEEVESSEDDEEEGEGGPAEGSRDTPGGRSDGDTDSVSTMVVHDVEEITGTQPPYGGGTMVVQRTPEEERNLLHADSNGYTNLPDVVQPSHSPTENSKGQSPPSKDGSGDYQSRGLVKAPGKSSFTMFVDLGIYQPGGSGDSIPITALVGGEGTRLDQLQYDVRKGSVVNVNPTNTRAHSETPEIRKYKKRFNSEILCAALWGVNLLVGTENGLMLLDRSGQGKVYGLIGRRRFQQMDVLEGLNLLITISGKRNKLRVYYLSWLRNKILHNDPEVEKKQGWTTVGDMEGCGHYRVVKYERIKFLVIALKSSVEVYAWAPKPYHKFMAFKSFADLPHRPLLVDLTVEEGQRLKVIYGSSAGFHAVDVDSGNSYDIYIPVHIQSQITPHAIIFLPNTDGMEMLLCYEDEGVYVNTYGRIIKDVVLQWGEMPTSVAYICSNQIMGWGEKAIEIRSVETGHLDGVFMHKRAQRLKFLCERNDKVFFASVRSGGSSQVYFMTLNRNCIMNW
Chain of Serine/threonine-protein kinase PAK 2 (Homo sapiens) (Q13177 whole entry): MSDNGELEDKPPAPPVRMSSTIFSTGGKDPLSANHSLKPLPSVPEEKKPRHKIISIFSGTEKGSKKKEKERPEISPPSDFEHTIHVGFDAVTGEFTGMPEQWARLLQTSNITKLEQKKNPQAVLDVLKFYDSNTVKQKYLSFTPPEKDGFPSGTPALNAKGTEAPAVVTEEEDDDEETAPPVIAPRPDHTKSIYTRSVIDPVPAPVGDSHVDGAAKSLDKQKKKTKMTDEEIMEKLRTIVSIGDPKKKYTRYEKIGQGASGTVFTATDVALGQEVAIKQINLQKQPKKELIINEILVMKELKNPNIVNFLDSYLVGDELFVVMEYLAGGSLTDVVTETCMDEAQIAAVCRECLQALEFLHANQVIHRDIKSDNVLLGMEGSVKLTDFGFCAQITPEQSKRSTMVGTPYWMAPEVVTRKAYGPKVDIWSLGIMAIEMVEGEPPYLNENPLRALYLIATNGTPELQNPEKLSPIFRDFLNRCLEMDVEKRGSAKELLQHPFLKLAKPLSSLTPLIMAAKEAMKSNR
Chain of Mitogen-activated protein kinase kinase kinase 11 (Homo sapiens) (Q16584 whole entry, looked up): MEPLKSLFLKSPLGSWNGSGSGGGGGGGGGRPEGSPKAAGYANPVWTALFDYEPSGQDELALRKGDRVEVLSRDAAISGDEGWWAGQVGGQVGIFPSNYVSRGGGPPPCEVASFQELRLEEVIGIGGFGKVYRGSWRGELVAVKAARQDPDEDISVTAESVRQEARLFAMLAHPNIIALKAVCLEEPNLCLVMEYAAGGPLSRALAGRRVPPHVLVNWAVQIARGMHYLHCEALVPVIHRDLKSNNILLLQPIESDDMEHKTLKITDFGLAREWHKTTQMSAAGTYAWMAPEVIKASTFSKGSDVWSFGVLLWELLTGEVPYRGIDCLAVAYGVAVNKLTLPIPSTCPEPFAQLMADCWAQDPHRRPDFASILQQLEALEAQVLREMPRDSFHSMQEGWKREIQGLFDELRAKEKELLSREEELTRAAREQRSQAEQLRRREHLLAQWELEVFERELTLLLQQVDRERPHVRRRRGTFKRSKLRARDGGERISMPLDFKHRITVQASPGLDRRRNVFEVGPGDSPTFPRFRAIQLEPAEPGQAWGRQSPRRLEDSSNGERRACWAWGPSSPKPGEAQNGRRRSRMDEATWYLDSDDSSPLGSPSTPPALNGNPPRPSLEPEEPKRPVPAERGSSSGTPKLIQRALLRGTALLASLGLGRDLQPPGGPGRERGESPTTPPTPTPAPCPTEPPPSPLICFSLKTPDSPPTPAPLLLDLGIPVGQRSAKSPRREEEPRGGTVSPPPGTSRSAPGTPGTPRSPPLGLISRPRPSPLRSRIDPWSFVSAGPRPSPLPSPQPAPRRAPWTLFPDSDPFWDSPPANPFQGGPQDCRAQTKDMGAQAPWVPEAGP

As for `C=CC(=O)Nc1cccc(C(=O)Nc2ccc(Nc3cc(-c4[nH]c(SC)nc4C)ccn3)cc2)c1`, the % of control on Misshapen-like kinase 1 (at 1 µM) is 75%; on Misshapen-like kinase 1 (at 5 µM) it was 44%.
In the case of `CC(C)(O)[C@H](F)CN1Cc2cc(NC(=O)c3cnn4cccnc34)c(N3CCOCC3)cc2C1=O`, the % of inhibition in assay [1] is 80.5%.
On to `CCC(=O)N1CCN(c2ccc(-n3c(=O)ccc4cnc5ccc(-c6cnc7ccccc7c6)cc5c43)cc2C(F)(F)F)CC1`, for which the % of control in assay [2] and in [3] was 100% throughout.
In [4], `CN(C)CCOc1ccc(-c2nc(-c3ccncc3)c(-c3ccc4c(c3)CC/C4=N\O)[nH]2)cc1` yielded a % of control of 85%.
`CNCCN1CCC(c2cc(CN(C)C(=O)c3cccc(Oc4ccccc4)c3)ccn2)CC1` registered a % activity in [5] greater than 90%.
On to `CNC(=O)Nc1ccc(-c2nc(N3CC4CCC(C3)O4)c3cnn(C4CCC5(CC4)OCCO5)c3n2)cc1`, for which, in assay [6], the % of control was 88%.
Turning to `CC[C@@H]1[C@H](F)C(=O)N[C@@H]1COc1nccc2cc(C(N)=O)c(OC)cc12` [ZIMLOVISERTIB], the % of inhibition in assay [7] is -5.54%; in assay [8], -8.9%; in assay [9], 12.7%; in assay [10] (at 0.01 µM) it was 10.1%; in assay [10] (at 0.04 µM), 23.3%; in assay [10] (at 0.2 µM), 9.7%. The % of inhibition in assay [10] (at 1 µM) was determined as 3.1%; in [10] (at 5 µM) it was 3%.
In [11], `CCC(=O)N1CC[C@H](Nc2ncnc3c2CN(c2cnc(OC)c(C(F)(F)F)c2)CC3)C1` [LENIOLISIB] returned an IC50 greater than 10 µM.
`N#Cc1cccc(-c2c[nH]c3ncnc(N4CCOCC4)c23)c1`: the % of inhibition in assay [12] turned out to be 22%.
In turn, `O[C@H]1CC[C@H](Nc2ncc3nc(Nc4c(F)cc(F)cc4F)n([C@H]4CCOC4)c3n2)CC1` came in with a % of control in [13] of 94%.
